Tested on: eIF2-GTP-Met-tRNAi ternary complex
Assay: Ternary complex assay (dual luciferase, firefly/renilla ratio) in stable KLN-tTA/pBISA-DL(ATF-4) cells; HTS and hit confirmation
Format: cell-based, mouse
Parameters: Activity 10 uM / Activity 2.5 uM / Activity 5 uM: unit not given here
Conditions: confirmed hits of the screen (Table 5); for Activity 5 uM: compound at 5 uM; for Activity 10 uM: compound at 10 uM; for Activity 2.5 uM: compound at 2.5 uM

SMILES | Activity 5 uM | Activity 10 uM | Activity 2.5 uM
COc1ccc(-c2coc3cc(O)ccc3c2=O)cc1 [Compound 93360] | 11.08 | 10.283 | 
Cc1cc2c(C)c3cccc[n+]3cc2c2ccccc12.[O-][Cl+3]([O-])([O-])[O-] [Compound 93861] | 2.622 | 3.171 | 
Cc1cc(/C=N/Nc2ccc3ccccc3n2)c(O)c2ncccc12 [Compound 94029] | 1.934 | 3.2135 | 
O=C(OC1CC2CC1C1CC=CC21)c1ccc([N+](=O)[O-])cc1 (stereo not shown) [Compound 94582] | 17.83 | 17.458 | 
O=C(OC1CC2CC1C1CC3OC3C21)c1ccccc1 (stereo not shown) [Compound 94585] | 3.148 | 3.525 | 
COc1ccc([N+](=O)[O-])c(C(OC(C)=O)OC(C)=O)c1OC(C)=O [Compound 95832] |  | 3.2 | 0.46
ClCCN(CCCl)c1ccc(C2N(Cc3ccccc3)c3ccccc3N2Cc2ccccc2)cc1 [Compound 96306] | 2.2 | 5.7 | 
CN(CCCl)c1ccc(C2N(Cc3ccccc3)c3ccccc3N2Cc2ccccc2)cc1 [Compound 96375] | 2 | 5.9 | 
CN(C)c1ccc(/C=C/c2nc3ccccc3[nH]2)cc1 [Compound 96942] |  | 7.54 | 4.17
CCCCCCCCCCCCCCCCCC[S+](C)CC.[I-] (stereo not shown) [Compound 97372] |  | 4.98 | 1.62
Cl.Nc1cc2ccccc2c2c1ccc1ccccc12 [Compound 97681] |  | 8.98 | 1.17
COc1ccc(C2(C)C(C#N)(C#N)C2(C#N)C#N)cc1 [Compound 98409] | 10.997 | 25.659 | 
NP(Br)(c1ccccc1)(c1ccccc1)c1ccccc1 [Compound 99047] | 14.82 | 13.186 | 
Oc1c(Cl)cc(Cl)cc1C1N(Cc2ccc(N(CCCl)CCCl)cc2)CCCN1Cc1ccc(N(CCCl)CCCl)cc1 [Compound 99639] |  | 8.32 | 0.7
COc1ccc(C2=Cc3ccc(OC(C)=O)cc3OC2)cc1 [Compound 99696] | 3.031 | 3.4275 | 
O=C(c1ccccc1)c1coc(-c2ccccc2)c1 [Compound 100239] | 6.748 | 7.6705 | 
CCCCc1ccc2nc3cc4ccccc4cc3nc2c1 [Compound 100622] |  | 3.12 | 2.25
COc1ccc(-c2cc3ccccc3[nH]2)cc1 [Compound 101082] | 4.772 | 5.896 | 
Cc1ccc(-c2nc(-c3ccc(N=Cc4ccc(N(CCCl)CCCl)cc4C)cc3)cs2)cc1.Cl [Compound 101484] | 2.4 | 3.4 | 
CCC(=O)Oc1c(Br)cc(C=O)cc1OC [Compound 101539] | 14.033 | 6.8175 | 
C(=Nc1cnc2ccccc2c1)c1ccccn1 [Compound 101544] | 2.767 | 3.1185 | 

SMILES | Activity 5 uM | Activity 10 uM | Activity 2.5 uM
CC(=O)OCC(OC(C)=O)C(OC(C)=O)C(/C=C/N=[N+]([O-])c1ccccc1)OC(C)=O (stereo not shown) [Compound 102003] |  | 9.46 | 0.42
CC[CH2][Pb]([CH2]CC)([CH2]CC)[O]C(C)=O [Compound 102516] |  | 3.4 | 
CC(=O)N(C)c1ccc(/C=C2\C=Cc3ccccc32)cc1 [Compound 103749] |  | 5.25 | 2.76
COC1=C2C=[N+](C)C3C(=C2C=CC1OC)Cc1cc2c(cc13)OCO2.O=[N+](O)O (stereo not shown) [Compound 103755] | 3.09 | 3.394 | 
Ic1ccc(/C=N/Nc2nnc(N/N=C/c3ccc(I)cc3)c3ccccc23)cc1 [Compound 103842] | 2.6 | 3.3 | 
O=C(Nc1cccc(Cl)c1)Nc1cc(C(F)(F)F)ccc1Cl [Compound 104498] | 6.367 | 8.4845 | 
NC(=S)N/N=C\c1ncnc2ccccc12 [Compound 104959] | 5.19 | 5.474 | 
O=C1C(c2c[nH]c3ccccc23)=Nc2ccc(Br)cc21 [Compound 105326] |  |  | 9.56
Nc1ccc(N=Nc2ccccc2Cl)c(N)n1 [Compound 106208] | 1.8 | 4.3 | 
Cc1ccc2nn(-c3ccc(O)cc3)nc2c1 [Compound 106291] |  | 3.15 | 2.7
CCc1ccc(N=Nc2ccc(N(C)C)cc2)cc1 [Compound 106343] | 2.6 | 4.1 | 
CCc1ccc(N=Nc2ccccc2)cc1 [Compound 106344] | 3.1 | 4.1 | 
CCc1ccc(N=Nc2ccc(Br)cc2)cc1 [Compound 106378] |  | 3.69 | 2.55
Cc1ccc(N=NC2C(=O)c3ccccc3C2=O)cc1 [Compound 106656] |  | 3.26 | 1.89
C[C@]12CC[C@@H]3c4ccc(Oc5nc(N6CC6)nc(N6CC6)n5)cc4CC[C@H]3[C@@H]1CCC2=O [Compound 106909] | 1.2 | 3.4 | 
C=CC(C)(C)c1c(OC(C)=O)cc2oc3c(OC(C)=O)c(OC(C)=O)cc(CC=C(C)C)c3c(=O)c2c1O [Compound 107229] |  | 3.14 | 1.06
COc1cccc(N=Nc2ccc(N(C)C)cc2)c1 [Compound 108310] |  | 4.88 | 3.62
CC(C)(C)NC/C(=C\c1ccccc1)C(=O)c1ccccc1 [Compound 109156] | 6.2 | 9.1 | 
CCN(CC)CCCNc1c2ccccc2nc2ccccc12.Cl.Cl [Compound 109326] |  | 17.89 | 0.69
Cc1cc(N(C)C)cc(C)c1C(=Nc1ccc(N=C(NO)c2c(C)cc(N(C)C)cc2C)cc1)NO.Cl [Compound 109535] | 3.9 | 6.3 | 
Clc1ccc(-c2cc(C3CO3)c3cc(Cl)cc(Cl)c3n2)cc1 (stereo not shown) [Compound 112369] | 1.4 | 3.1 | 
